Legend:
[1] = test system: herpes simplex virus (HSV) type 1; format: cell-based, herpes simplex virus type 1
equine rhinovirus (ER) = format: cell-based; conditions: ML cells infected with equine rhinovirus
P388 leukemia = test: In vivo P388 mouse leukemia test; set-up: species or system mice
Excerpt: The P388 mouse leukemia test is described in detail in a publication by G. L. Neil, et. al., Cancer Treatment Reports 63, 1971-1978 (1979).
^a Schedule of Injection: daily intraperitoneal injection for 9 days
following tumor implantation.
^b Median survival time of control animals = 10.3 days.
^a Schedule of injection: Intraperitoneal injection on Day 1, 5, and
9, following Tumor inoculation.
^b Median survival time of Control (no drug) animals: 10.2 days.

Vero cells = conditions: uninfected Vero cells, 50% cell destruction, overnight incubation
coxsackie (COX) A21 = format: cell-based, coxsackie virus; conditions: ML cells infected with coxsackie A21
[2] = test system: L1210 mouse leukemia cells; test: L1210 tube dilution assay; format: cell-based
Excerpt: The L1210 tube dilution assay is described in detail in a publication by L. H. Li, et al., Cancer Research 39: 4816 (1979).

[3] = test system: herpes simplex virus (HSV) type 2; format: cell-based, herpes simplex virus type 2
ML cells = conditions: uninfected ML cells, 50% cell destruction, overnight incubation
[4] = 30 μg/kg/injection, i.p. on Day 1, 5 and 9
[5] = 60 μg/kg/injection, i.p. on Day 1, 5 and 9
[6] = 63 μg/kg/injection, daily i.p. for 9 days
[7] = 120 μg/kg/injection, i.p. on Day 1, 5 and 9
[8] = 125 μg/kg/injection, daily i.p. for 9 days
[9] = 250 μg/kg/injection, daily i.p. for 9 days
[10] = 250 μg/kg/injection, i.p. on Day 1, 5 and 9
[11] = 500 μg/kg/injection, i.p. on Day 1, 5 and 9
[12] = 1000 μg/kg/injection, i.p. on Day 1, 5 and 9

Substance: didemnin B
- Ratio (cytotoxic concentration ÷ antiviral concentration), HSV-1 virus ([1]; Vero cells): 8
- ID50 Antiviral-HSV-1 virus ([1]; Vero cells infected with HSV-1): 1.5 µg/mL
- ID50 Antiviral-ER virus (equine rhinovirus (ER)): < 1.5 µg/mL
- T/C (P388 leukemia; [4]): 125%
- Weight Change (P388 leukemia; [4]): +1.6 g
- Median Survival Time (P388 leukemia; 30 μg/kg/injection, i.p. on Day 1, 5 and 9, control 10.2 days): 12.8 days
- T/C (P388 leukemia; [5]): 140%
- Weight Change (P388 leukemia; [5]): +1.2 g
- Median Survival Time (P388 leukemia; 60 μg/kg/injection, i.p. on Day 1, 5 and 9, control 10.2 days): 14.3 days
- T/C (P388 leukemia; [6]): 143%
- Weight Change (P388 leukemia; [6]): +0.1 g
- Median Survival Time (P388 leukemia; 63 μg/kg/injection, daily i.p. for 9 days, control 10.3 days): 14.8 days
- T/C (P388 leukemia; [7]): 147%
- Weight Change (P388 leukemia; [7]): +0.2 g
- Median Survival Time (P388 leukemia; 120 μg/kg/injection, i.p. on Day 1, 5 and 9, control 10.2 days): 15.0 days
- T/C (P388 leukemia; [8]): 136%
- Weight Change (P388 leukemia; [8]): -0.6 g
- Median Survival Time (P388 leukemia; 125 μg/kg/injection, daily i.p. for 9 days, control 10.3 days): 14.0 days
- T/C (P388 leukemia; [9]): 138%
- Weight Change (P388 leukemia; [9]): -2.2 g
- Median Survival Time (P388 leukemia; 250 μg/kg/injection, daily i.p. for 9 days, control 10.3 days): 14.2 days
- T/C (P388 leukemia; [10]): 157%
- Weight Change (P388 leukemia; [10]): -0.5 g
- Median Survival Time (P388 leukemia; 250 μg/kg/injection, i.p. on Day 1, 5 and 9, control 10.2 days): 16.0 days
- Weight Change (P388 leukemia; 500 μg/kg/injection, daily i.p. for 9 days): -3.4 g
- T/C (P388 leukemia; [11]): 176%
- Weight Change (P388 leukemia; [11]): -1.7 g
- Median Survival Time (P388 leukemia; 500 μg/kg/injection, i.p. on Day 1, 5 and 9, control 10.2 days): 18.0 days
- T/C (P388 leukemia; [12]): 199%
- Weight Change (P388 leukemia; [12]): -3.8 g
- Median Survival Time (P388 leukemia; 1000 μg/kg/injection, i.p. on Day 1, 5 and 9, control 10.2 days): 20.3 days
- Activity in vivo against P388 leukemia in mice (P388 leukemia; mice): active
- ID50 Toxicity-Vero cells (Vero cells): 12 µg/mL
- ID50 Antiviral-cox virus (coxsackie (COX) A21): < 1.5 µg/mL
- ID50 ([2]; concentration to inhibit L1210 cell growth by 50 percent): 0.0018 µg/mL
- ID90 ([2]; concentration to inhibit L1210 cell growth by 90 percent): 0.0059 µg/mL
- Inhibition of growth of L1210 mouse leukemia cells in vitro (words) [2]: inhibit the growth
- Inhibition of growth of L1210 mouse leukemia cells in vitro (words) ([2]; listed as didemnin B): inhibit
- Solubility in organic solvents (methanol, ethanol, isopropanol, dioxane, ethyl acetate, and chloroform): soluble
- Solubility in toluene (toluene): sparingly soluble
- Solubility in water (water): insoluble
- Ratio (cytotoxic concentration ÷ antiviral concentration), HSV-2 virus ([3]; Vero cells): 8
- ID50 Antiviral-HSV-2 virus ([3]; Vero cells infected with HSV-2): 1.5 µg/mL
- ID50 Toxicity-ML cells (ML cells): < 1.5 µg/mL
